Measured values taken from patent US20210346359A1, “Use of CFTR Modulators For Treating Cerebrovascular Conditions” (Qanatpharma AG, priority 2018, published 2021).
Entries after “also recorded” stand apart in the source; their conditions may differ.

Legend:
mice with heart failure = test: MRI (FAIR) cerebral blood flow in heart failure mice; format: in vivo, mouse; details: HF mice, forebrain cortical, 3 mg/kg daily for 2 days
From the text: As described previously (10-12), we utilized a flow-sensitive alternating inversion recovery (FAIR) magnetic resonance imaging (MRI) technique (13) to evaluate cerebral blood flow (CBF). During imaging, mice were immobilized with 1.8% isoflurane delivered through a nose cone. To maintain body temperature, the MRI is equipped with embedded tubes that convect water from an external heater-pump. Respiration was monitored using a pneumatic pillow (SA Instruments, Stonybrook, USA); isoflurane levels were adjusted to maintain respiration at approximately 50 breaths/minute.
FAIR images were obtained using a 7 Tesla micro-MRI system (BioSpec 70/30 USR, Bruker BioSpin, Ettlingen, Germany), including the B-GA12 gradient insert, 72 mm inner diameter linear volume resonator for RF transmission, and anteriorly placed head coil for RF reception. […] FAIR images were evaluated by manual prescription (MIPAV, NIH, Bethesda, MD; http://mipav.cit.nih.gov) of sub-hemispheric regions-of-interest (ROIs), termed ‘global’, and local ROIs corresponding to cortical and sub-cortical parenchyma in forebrain sections; cortical and paraventricular parenchyma in middle sections; and cortical and midbrain parenchyma in hindbrain sections. […]

[1] = test system: posterior cerebral arteries; test: Phenylephrine responses of isolated posterior cerebral arteries; format: in vivo, mouse
Method: Isolation and functional assessment of resistance arteries: Mouse olfactory (a first branch of the anterior cerebral artery) and PCAs were carefully dissected, cannulated onto micropipettes, stretched to their in vivo lengths and pressurized to 45 mmHg, as previously described (3,6); mouse skeletal muscle resistance arteries were dissected from the cremaster muscle, cannulated and pressurized to 60 mmHg. All functional experiments were conducted in 3-morpholinopropanesulfonic acid (MOPS) buffered saline at 37° C. with no perfusion. Vasomotor responses to phenylephrine (5 μmol/L for posterior cerebral arteries, 10 μmol/L for cremaster skeletal muscle arteries) provided an assessment of vessel viability at the beginning and end of each experiment. Arteries failing to show ≥25% constriction to phenylephrine were excluded.
(§1) Myogenic tone was calculated as the percent constriction in relation to the maximal diameter at each respective transmural pressure: tone (% of diamax)=[(diamax−diaactive)/diamax]×100, where diaactive is the vessel diameter in MOPS containing Ca^2+ and diamax is the diameter in Ca^2+-free MOPS. Analyses of vasomotor responses to phenylephrine used the same calculation, only in this case, diaactive represents the vessel diameter at steady state following application of the given agent and diamax represents the maximal diameter measured under Ca^2+-free conditions.

[2] = test system: posterior cerebral arteries; test: Myogenic tone of isolated posterior cerebral arteries after in vivo treatment; design: species or system mouse
From the text: Myocardial infarction: HF was induced by surgical ligation of the left anterior descending coronary artery (3). Briefly, mice were anaesthetized with isoflurane, intubated with a 20-gauge angiocatheter and ventilated with room air. Under sterile conditions, the thorax and pericardium were opened, and the left anterior descending coronary artery was permanently ligated with 7-0 silk suture (Deknatel: Fall River, USA). In sham-operated controls, the thorax and pericardium were opened, but the left anterior descending coronary artery was not ligated. Following the procedure, the chest was closed and the mice were extubated upon spontaneous respiration. Posterior cerebral arteries (PCAs) were isolated 4-6 weeks post-infarction. […]
Myogenic responses were elicited by step-wise 20 mmHg increases in transmural pressure from 20 mmHg to 80 mmHg (olfactory arteries) or 100 mmHg (posterior cerebral arteries and cremaster skeletal muscle resistance arteries). At each pressure step, vessel diameter (diaactive) was measured once a steady state was reached (5 min). Vessels requiring treatment (e.g., CFTR(inh)-172) were incubated with the reagent in MOPS for 30 min and myogenic responses were then assessed in the presence of that reagent. Following completion of all diaactive measurements, MOPS buffer was replaced with a Ca^2+-free version and maximal passive diameter (diamax) was recorded at each pressure step.
as §1

[3] = Global hemodynamic parameters (CO, TPR, MAP) in heart failure mice; format: in vivo, mouse; details: HF mice, 3 mg/kg daily for 2 days
Method: As previously described (9-11), echocardiographic measurements were collected with a 30 MHz mechanical sector transducer (Vevo 770; Visual Sonics, Toronto, Canada) in conjunction with the mean arterial pressure (MAP) measurements (Millar SPR-671 micro-tip mouse pressure catheter; Inter V Medical Inc., Montreal, Canada). The aortic flow velocity-time integral (VTI) was measured using pulse wave Doppler just above the aortic root. The aortic cross-sectional area (CSA) was calculated from the aortic root dimension (ARD): CSA=π(ARD/2)2. Stroke volume (SV), CO and TPR were calculated as: SV=CSA×VTI; CO=SV×HR; TPR=MAP/CO.
Myocardial infarction: HF was induced by surgical ligation of the left anterior descending coronary artery (3). Briefly, mice were anaesthetized with isoflurane, intubated with a 20-gauge angiocatheter and ventilated with room air. Under sterile conditions, the thorax and pericardium were opened, and the left anterior descending coronary artery was permanently ligated with 7-0 silk suture (Deknatel: Fall River, USA). In sham-operated controls, the thorax and pericardium were opened, but the left anterior descending coronary artery was not ligated. Following the procedure, the chest was closed and the mice were extubated upon spontaneous respiration. Posterior cerebral arteries (PCAs) were isolated 4-6 weeks post-infarction.

log EC50 of phenylephrine response ([1]; posterior cerebral arteries, HF+C18 group, log scale): −5.94±0.21
Structure (SMILES): O=C(Nc1ncc(C(c2ccccc2Cl)N2CCC(O)C2)s1)C1(c2ccc3c(c2)OCO3)CC1 (stereo not drawn) [C18, 1-(benzo[d][1,3]dioxol-5-yl)-N-(5-((2-chlorophenyl)(3-hydroxypyrrolidin-1-yl)methyl)thiazol-2-yl)cyclopropanecarboxamide]
cerebral blood flow / cerebral perfusion (mice with heart failure): restores; also recorded: significantly improves
phenylephrine dose-response relationship ([1]; posterior cerebral arteries from CFTR knockout mice, 3 mg/kg i.p. daily for 2 days, 3 mg/kg): not affected; also recorded: does not alter
phenylephrine dose-response relationship normalized to basal tone, HF vs HF+C18 ([1]; posterior cerebral arteries from HF mice, 3 mg/kg i.p. daily for 2 days, 3 mg/kg): curves overlap; also recorded: not significantly different
phenylephrine dose-response relationship (tone), HF vs HF+C18 ([1]; posterior cerebral arteries from HF mice, 3 mg/kg i.p. daily for 2 days, not normalized, 3 mg/kg): significant difference
phenylephrine responses ([1]; posterior cerebral arteries from sham-operated mice, 3 mg/kg i.p. daily for 2 days, 3 mg/kg): does not affect; also recorded: does not alter
posterior cerebral artery myogenic tone ([2]; arteries from CFTR knockout mice, in vivo 3 mg/kg daily for 2 days): not susceptible; also recorded: not observed
posterior cerebral artery myogenic tone ([2]; arteries from HF mice, in vivo 3 mg/kg daily for 2 days): normalizes; also recorded: reduces
posterior cerebral artery myogenic tone ([2]; arteries from sham-operated mice, in vivo 3 mg/kg i.p. daily for 2 days): does not affect; also recorded: does not alter
cardiac injury induced by left anterior descending coronary artery ligation [3]: does not ameliorate
mean arterial pressure (MAP) [3]: no effect
total peripheral resistance (TPR) ([3]; 3 mg/kg): no effect; also recorded: lack of effect
